Structures are written as SMILES. Some results are limits rather than exact numbers.

The target in one experiment is T1, STAT6 protein (Homo sapiens, UniProt P42226).
T1 sequence (P42226 1-847): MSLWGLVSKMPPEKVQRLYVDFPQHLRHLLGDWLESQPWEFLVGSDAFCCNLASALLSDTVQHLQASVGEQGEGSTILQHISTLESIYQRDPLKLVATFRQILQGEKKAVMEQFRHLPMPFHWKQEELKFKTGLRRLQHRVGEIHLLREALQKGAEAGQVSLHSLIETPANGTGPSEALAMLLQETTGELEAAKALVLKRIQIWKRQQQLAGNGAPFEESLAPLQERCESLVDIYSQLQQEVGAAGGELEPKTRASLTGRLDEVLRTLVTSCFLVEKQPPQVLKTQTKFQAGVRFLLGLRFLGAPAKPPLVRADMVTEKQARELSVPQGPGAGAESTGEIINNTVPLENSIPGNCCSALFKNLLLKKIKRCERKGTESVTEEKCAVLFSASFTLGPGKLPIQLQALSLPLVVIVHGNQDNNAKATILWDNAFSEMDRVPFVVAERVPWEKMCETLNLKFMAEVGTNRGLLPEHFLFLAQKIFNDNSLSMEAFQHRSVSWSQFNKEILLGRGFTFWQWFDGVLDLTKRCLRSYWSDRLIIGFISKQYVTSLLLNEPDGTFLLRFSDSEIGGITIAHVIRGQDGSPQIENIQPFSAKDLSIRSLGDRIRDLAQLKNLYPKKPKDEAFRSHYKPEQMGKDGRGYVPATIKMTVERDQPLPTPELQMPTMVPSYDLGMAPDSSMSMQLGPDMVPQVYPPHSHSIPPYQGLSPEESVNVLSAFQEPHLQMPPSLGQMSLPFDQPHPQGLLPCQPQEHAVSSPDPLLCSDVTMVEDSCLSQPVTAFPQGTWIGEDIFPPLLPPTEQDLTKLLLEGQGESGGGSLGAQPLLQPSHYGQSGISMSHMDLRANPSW
The experiment in a line: Fluorescence polarization (FP) binding assay, STAT6.
Settings: not given
Summed up: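 Tracer (fluorescein-labeled, 5 nM) was mixed with 200 nM STAT5 and/or STAT6 in PBS pH 7.4 plus 0.01% BGG, 0.01% Tween-20, 2 mM DTT. After 15 min shaking and 1 h at room temperature to equilibrium, polarization was measured and constants derived by nonlinear fitting.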
Consider `CCOP(=O)(O)C(F)(F)c1ccc2sc(C(=O)N[C@H]3CN(C(C)=O)CC[C@H]4CC[C@@H](C(=O)N5CCCC56CCCC6)N4C3=O)cc2c1` [Compound 386, ethyl hydrogen ((2-(((5S,8S,10aR)-3-acetyl-6-oxo-8-(1-azaspiro[4.4]nonane-1-carbonyl)decahydropyrrolo[1,2-a][1,5]diazocin-5-yl)carbamoyl)benzo[b]thiophen-5-yl)difluoromethyl)phosphonate], for which the Ki is > 10 µM.

Staying with this experiment, now noted: FP competition, 5 nM fluorescein-labeled tracer, 200 nM protein, PBS pH7.4; read-out: Binding STAT6.
As for `CC(=O)N1CC[C@H]2CC[C@@H](C(=O)N3CCCC34CCCC4)N2C(=O)[C@@H](NC(=O)c2cc3cc(C(F)(F)P(=O)(O)O)ccc3s2)C1` [Compound 387, ((2-(((5S,8S,10aR)-3-acetyl-6-oxo-8-(1-azaspiro[4.4]nonane-1-carbonyl)decahydropyrrolo[1,2-a][1,5]diazocin-5-yl)carbamoyl)benzo[b]thiophen-5-yl)difluoromethyl)phosphonic acid], the Ki is > 10 µM.

In the case of `CCN(C(=O)[C@@H]1CC[C@@H]2CCN(C(C)=O)C[C@H](NC(=O)c3cc4cc(C(F)(F)P(=O)(O)O)ccc4s3)C(=O)N21)c1ccc(Cl)cc1` [Compound 388, ((2-(((5S,8S,10aR)-3-acetyl-8-((4-chlorophenyl)(ethyl)carbamoyl)-6-oxodecahydropyrrolo[1,2-a][1,5]diazocin-5-yl)carbamoyl)benzo[b]thiophen-5-yl)difluoromethyl)phosphonic acid], the Ki was > 10 µM.

Regarding `CC(=O)N1CC[C@H]2CC[C@@H](C(=O)N(c3ccc(Cl)cc3)C(C)C)N2C(=O)[C@@H](NC(=O)c2cc3cc(C(F)(F)P(=O)(O)O)ccc3s2)C1` [Compound 389, ((2-(((5S,8S,10aR)-3-acetyl-8-((4-chlorophenyl)(isopropyl)carbamoyl)-6-oxodecahydropyrrolo[1,2-a][1,5]diazocin-5-yl)carbamoyl)benzo[b]thiophen-5-yl)difluoromethyl)phosphonic acid], the Ki lay in the range of 1 to 10 µM.

As to `CC(=O)N1CC[C@H]2CC[C@@H](C(=O)N3CCC(C)(C(C)C)C3)N2C(=O)[C@@H](NC(=O)c2cc3cc(C(F)(F)P(=O)(O)O)ccc3s2)C1` (stereo partly drawn) [Compound 390, ((2-(((5S,8S,10aR)-3-acetyl-8-(3-isopropyl-3-methylpyrrolidine-1-carbonyl)-6-oxodecahydropyrrolo[1,2-a][1,5]diazocin-5-yl)carbamoyl)benzo[b]thiophen-5-yl)difluoromethyl)phosphonic acid], the Ki is > 10 µM.

Consider `CC(=O)N1CC[C@H]2CC[C@@H](C(=O)N3CCCCC4(CCCC4)C3)N2C(=O)[C@@H](NC(=O)c2cc3cc(C(F)(F)P(=O)(O)O)ccc3s2)C1` [Compound 391, ((2-(((5S,85,10aR)-3-acetyl-6-oxo-8-(7-azaspiro[4.6]undecane-7-carbonyl)decahydropyrrolo[1,2-a][1,5]diazocin-5-yl)carbamoyl)benzo[b]thiophen-5-yl)difluoromethyl)phosphonic acid], for which the Ki is > 10 µM.

Consider `CC(=O)N1CC[C@H]2CC[C@@H](C(=O)N3CCC(C(N)=O)(C(F)(F)F)C3)N2C(=O)[C@@H](NC(=O)c2cc3cc(C(F)(F)P(=O)(O)O)ccc3s2)C1` (stereo partly drawn) [Compound 392, ((2-(((5S,8S,10aR)-3-acetyl-8-(3-carbamoyl-3-(trifluoromethyl)pyrrolidine-1-carbonyl)-6-oxodecahydropyrrolo[1,2-a][1,5]diazocin-5-yl)carbamoyl)benzo[b]thiophen-5-yl)difluoromethyl)phosphonic acid], for which the Ki is > 10 µM.

Take `CC(=O)N1CC[C@H]2CC[C@@H](C(=O)N3CCC(C)(c4ccccc4)C3)N2C(=O)[C@@H](NC(=O)c2cc3cc(C(F)(F)P(=O)(O)O)ccc3s2)C1` (stereo partly drawn) [Compound 393, ((2-(((5S,8S,10aR)-3-acetyl-8-(3-methyl-3-phenylpyrrolidine-1-carbonyl)-6-oxodecahydropyrrolo[1,2-a][1,5]diazocin-5-yl)carbamoyl)benzo[b]thiophen-5-yl)difluoromethyl)phosphonic acid]: the Ki is > 10 µM.

The values are drawn from US20230295200A1 (REGENTS OF THE UNIVERSITY OF MICHIGAN, priority 2022, published 2023).
